We go through 5 molecules from patent US12252524B2, “GIP/GLP1 co-agonist compounds” (Eli Lilly and Company, priority 2018, dated 2025).

One assay addresses T1, human Gcg receptor (Homo sapiens, UniProt P47871).
T1 construct: expressed in transfected cells; crude membranes
Briefly: [125I]-Glucagon binding (SPA), human Gcg receptor. The following applies: read-out: hGLcgR Ki, nM (SEM, n). The essentials:
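Crude membranes from cells expressing the receptor, prepared by hypotonic lysis in 50 mM Tris HCl pH 7.5 with protease inhibitors, homogenization and differential centrifugation, were used in a WGA-bead SPA. Binding buffer: 25 mM HEPES pH 7.4, 2.5 mM CaCl2, 1 mM MgCl2, bacitracin, Tween-20.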

For another assay, the target named is T2, human GIP receptor (Homo sapiens, UniProt P48546).
T2 construct: expressed in transfected cells; crude membranes
T2 sequence (P48546 22-466): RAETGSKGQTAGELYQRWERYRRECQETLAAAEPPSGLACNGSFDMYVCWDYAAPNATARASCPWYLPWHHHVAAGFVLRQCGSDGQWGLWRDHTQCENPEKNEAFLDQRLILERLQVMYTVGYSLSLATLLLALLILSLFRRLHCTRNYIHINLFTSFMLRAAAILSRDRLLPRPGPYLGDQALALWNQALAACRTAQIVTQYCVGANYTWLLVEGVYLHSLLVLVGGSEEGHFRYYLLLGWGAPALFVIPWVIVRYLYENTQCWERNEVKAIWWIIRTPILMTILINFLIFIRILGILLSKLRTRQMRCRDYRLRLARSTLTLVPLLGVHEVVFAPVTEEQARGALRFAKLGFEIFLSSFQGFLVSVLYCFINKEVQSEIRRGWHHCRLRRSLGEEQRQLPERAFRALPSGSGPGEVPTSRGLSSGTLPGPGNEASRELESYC
Description: [125I]-GIP binding (SPA), human GIP receptor. The conditions noted are these: read-out: hGIPR Ki, nM (SEM, n).

For another assay, the target named is human GLP-1R (Homo sapiens, UniProt P43220). Briefly: [125I]-GLP-1 binding (SPA), human GLP-1 receptor. On the set-up: expressed in transfected cells; crude membranes. The conditions noted are these: read-out: hGLP1R Ki, (nM) (SEM, n). The essentials:
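Frozen cell pellets are lysed on ice in hypotonic Tris buffer, pH 7.5, homogenized, and centrifuged to a membrane pellet resuspended at about 1 to 3 mg/mL. Binding is then measured in HEPES-based buffer at pH 7.4, and curves are fitted to give IC50 and Ki.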

Assay [1] has as its target human GLP-1 receptor (GLP-1R) (Homo sapiens, UniProt P43220). Briefly: cAMP pharmacological functional assay in presence of casein, hGLP-1R. It is filed as cell-based. The following applies: HEK293 cells expressing hGLP-1R, 0.1% Casein, geometric mean; read-out: hGLP1R cAMP Rel EC50 nM (SEM, n).
In assay [2] the target is T3, gastric inhibitory peptide receptor (GIPR) (Homo sapiens, UniProt P48546).
T3 sequence (P48546 22-466): T2 sequence (P48546 22-466)
Description: cAMP pharmacological functional assay in presence of casein, hGIPR. It counts as cell-based. The following applies: HEK293 cells expressing hGIPR, 0.1% Casein, geometric mean; read-out: hGIPR cAMP Rel EC50 nM (SEM, n).

For orientation: Ki means a dissociation constant, usually derived from enzyme kinetics or from competition with a known ligand. Usually EC50 stands for the concentration that produces a half-maximal response.

Numbered stars: 1 amine (or outer) side, 2 acyl side, 3 side chain; on linkers, the order of the positions; unused ones are H or OH. Square brackets hold non-standard residues; d marks the D form. Side chains are listed from the residue outwards. Peptide text beside a SMILES is read from it. * marks the point of attachment. C18 diacid = O=C(O)CCCCCCCCCCCCCCCCC(=O)*; αMePhe(2-F) = C[C@](N)(Cc1ccccc1F)C(=O)O; γGlu = O=C(O)[C@H](CCC(=O)[*:2])N[*:1]; αMeY = C[C@](N)(Cc1ccc(O)cc1)C(=O)O; 4Pal = N[C@@H](Cc1ccncc1)C(=O)O; αMeL = CC(C)C[C@](C)(N)C(=O)O; Orn = NCCC[C@H](N)C(=O)O; AEEA = NCCOCCOCC(=O)O; Aib = CC(C)(N)C(=O)O Bounds are passed on as bounds.

Chain of human GLP-1R (P43220 24-463): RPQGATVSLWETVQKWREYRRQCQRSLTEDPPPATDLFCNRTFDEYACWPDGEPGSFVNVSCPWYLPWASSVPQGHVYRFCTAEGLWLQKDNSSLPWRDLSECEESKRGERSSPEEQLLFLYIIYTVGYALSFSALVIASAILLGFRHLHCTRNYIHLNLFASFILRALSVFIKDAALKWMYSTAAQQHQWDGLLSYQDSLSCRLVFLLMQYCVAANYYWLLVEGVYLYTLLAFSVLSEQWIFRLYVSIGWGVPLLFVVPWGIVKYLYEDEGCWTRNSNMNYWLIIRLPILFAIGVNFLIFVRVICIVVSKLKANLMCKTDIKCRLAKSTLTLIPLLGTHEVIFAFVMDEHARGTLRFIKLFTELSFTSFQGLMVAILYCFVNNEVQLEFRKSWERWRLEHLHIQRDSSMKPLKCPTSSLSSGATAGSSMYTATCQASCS
Chain of human GLP-1 receptor (GLP-1R) (P43220 24-463): as above
T1 sequence (P47871 26-477): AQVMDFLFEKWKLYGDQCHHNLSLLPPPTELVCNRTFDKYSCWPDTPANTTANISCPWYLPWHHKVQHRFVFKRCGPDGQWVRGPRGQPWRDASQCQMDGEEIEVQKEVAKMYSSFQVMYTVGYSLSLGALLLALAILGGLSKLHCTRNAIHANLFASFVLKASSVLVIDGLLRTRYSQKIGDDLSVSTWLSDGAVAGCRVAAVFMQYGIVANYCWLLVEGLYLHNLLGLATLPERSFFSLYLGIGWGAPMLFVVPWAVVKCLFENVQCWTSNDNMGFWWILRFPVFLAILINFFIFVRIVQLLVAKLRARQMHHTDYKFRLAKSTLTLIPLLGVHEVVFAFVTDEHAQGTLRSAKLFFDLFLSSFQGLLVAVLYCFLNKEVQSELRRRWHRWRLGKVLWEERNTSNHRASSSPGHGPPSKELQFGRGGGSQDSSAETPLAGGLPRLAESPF

Consider `CC[C@H](C)[C@H](NC(=O)[C@H](CC(C)C)NC(=O)[C@](C)(Cc1ccc(O)cc1)NC(=O)[C@@H](CCC(=O)O)NC(=O)[C@@H](NC(=O)[C@H](Cc1ccccc1)NC(=O)[C@H](CCC(=O)O)NC(=O)C(C)(C)NC(=O)[C@H](CCC(N)=O)NC(=O)[C@H](C)NC(=O)[C@H](CCCCNC(=O)COCCOCCNC(=O)COCCOCCNC(=O)CC[C@H](NC(=O)CCCCCCCCCCCCCCCCC(=O)O)C(=O)O)NC(=O)[C@H](CCCN)NC(=O)[C@H](CC(=O)O)NC(=O)[C@H](CC(C)C)NC(=O)[C@](C)(CC(C)C)NC(=O)[C@@H](NC(=O)[C@H](CO)NC(=O)[C@H](Cc1ccc(O)cc1)NC(=O)[C@H](CC(=O)O)NC(=O)[C@H](CO)NC(=O)[C@@H](NC(=O)[C@](C)(Cc1ccccc1F)NC(=O)[C@@H](NC(=O)CNC(=O)[C@H](CCC(=O)O)NC(=O)C(C)(C)NC(=O)[C@@H](N)Cc1ccc(O)cc1)[C@@H](C)O)[C@@H](C)O)[C@@H](C)CC)[C@@H](C)CC)C(=O)N[C@@H](CCC(=O)O)C(=O)NCC(=O)NCC(=O)N1CCC[C@H]1C(=O)N[C@@H](CO)C(=O)N[C@@H](CO)C(=O)NCC(=O)N[C@@H](C)C(=O)N1CCC[C@H]1C(=O)N1CCC[C@H]1C(=O)N1CCC[C@H]1C(=O)N[C@@H](CO)C(N)=O` [Example 236] (H-Y[Aib]EGT[αMePhe(2-F)]TSDYSI[αMeL]LD[Orn]K([AEEA-AEEA-γGlu-C18 diacid])AQ[Aib]EFI[dE][αMeY]LIEGGPSSGAPPPS-NH2), for which the inhibition constant (Ki) on human Gcg receptor was found to be 200 nM; on human GIP receptor it was 0.0425 nM; at human GLP-1R it was 1.05 nM. Besides, the figures for the 50% effective concentration (EC50) in assay [1] and in assay [2] were 0.0231 nM and 0.0249 nM, respectively.
In the case of `CC[C@H](C)[C@H](NC(=O)[C@H](CC(C)C)NC(=O)[C@](C)(Cc1ccc(O)cc1)NC(=O)[C@@H](CCC(=O)O)NC(=O)[C@@H](NC(=O)[C@H](Cc1ccccc1)NC(=O)[C@H](CCC(=O)O)NC(=O)C(C)(C)NC(=O)[C@H](CCC(N)=O)NC(=O)[C@H](C)NC(=O)[C@H](CCCCNC(=O)COCCOCCNC(=O)COCCOCCNC(=O)CC[C@H](NC(=O)CCCCCCCCCCCCCCCCC(=O)O)C(=O)O)NC(=O)[C@H](CCCN)NC(=O)[C@H](CC(=O)O)NC(=O)[C@H](CC(C)C)NC(=O)[C@](C)(CC(C)C)NC(=O)[C@@H](NC(=O)[C@H](CO)NC(=O)[C@H](C)NC(=O)[C@H](CC(=O)O)NC(=O)[C@H](CO)NC(=O)[C@@H](NC(=O)[C@](C)(Cc1ccccc1F)NC(=O)[C@@H](NC(=O)CNC(=O)[C@H](CCC(=O)O)NC(=O)C(C)(C)NC(=O)[C@@H](N)Cc1ccc(O)cc1)[C@@H](C)O)[C@@H](C)O)[C@@H](C)CC)[C@@H](C)CC)C(=O)N[C@@H](CCC(=O)O)C(=O)NCC(=O)NCC(=O)N1CCC[C@H]1C(=O)N[C@@H](CO)C(=O)N[C@@H](CO)C(=O)NCC(=O)N[C@@H](C)C(=O)N1CCC[C@H]1C(=O)N1CCC[C@H]1C(=O)N1CCC[C@H]1C(=O)N[C@@H](CO)C(N)=O` [Example 237] (H-Y[Aib]EGT[αMePhe(2-F)]TSDASI[αMeL]LD[Orn]K([AEEA-AEEA-γGlu-C18 diacid])AQ[Aib]EFI[dE][αMeY]LIEGGPSSGAPPPS-NH2), the Ki on human Gcg receptor was more than 1060 nM; at human GIP receptor, 0.131 nM; at human GLP-1R, 1.04 nM. The values for the 50% effective concentration (EC50) in assay [1] and in assay [2] were 0.0187 nM and 0.0883 nM, respectively.
The corresponding values for `CC[C@H](C)[C@H](NC(=O)[C@H](CC(C)C)NC(=O)[C@](C)(Cc1ccc(O)cc1)NC(=O)[C@@H](CCC(=O)O)NC(=O)[C@@H](NC(=O)[C@H](Cc1ccccc1)NC(=O)[C@H](CCC(=O)O)NC(=O)C(C)(C)NC(=O)[C@H](CCC(N)=O)NC(=O)[C@H](C)NC(=O)[C@H](CCCCNC(=O)COCCOCCNC(=O)COCCOCCNC(=O)CC[C@H](NC(=O)CCCCCCCCCCCCCCCCC(=O)O)C(=O)O)NC(=O)[C@H](CCCN)NC(=O)[C@H](CC(=O)O)NC(=O)[C@H](CC(C)C)NC(=O)[C@](C)(CC(C)C)NC(=O)[C@@H](NC(=O)[C@H](CO)NC(=O)[C@H](CC(C)C)NC(=O)[C@H](CC(=O)O)NC(=O)[C@H](CO)NC(=O)[C@@H](NC(=O)[C@](C)(Cc1ccccc1F)NC(=O)[C@@H](NC(=O)CNC(=O)[C@H](CCC(=O)O)NC(=O)C(C)(C)NC(=O)[C@@H](N)Cc1ccc(O)cc1)[C@@H](C)O)[C@@H](C)O)[C@@H](C)CC)[C@@H](C)CC)C(=O)N[C@@H](CCC(=O)O)C(=O)NCC(=O)NCC(=O)N1CCC[C@H]1C(=O)N[C@@H](CO)C(=O)N[C@@H](CO)C(=O)NCC(=O)N[C@@H](C)C(=O)N1CCC[C@H]1C(=O)N1CCC[C@H]1C(=O)N1CCC[C@H]1C(=O)N[C@@H](CO)C(N)=O` [Example 238] (H-Y[Aib]EGT[αMePhe(2-F)]TSDLSI[αMeL]LD[Orn]K([AEEA-AEEA-γGlu-C18 diacid])AQ[Aib]EFI[dE][αMeY]LIEGGPSSGAPPPS-NH2) are 230 nM, 0.0403 nM, 0.548 nM, 0.0241 nM and 0.0296 nM.
For the molecule `CC[C@H](C)[C@H](NC(=O)[C@H](CC(C)C)NC(=O)[C@](C)(Cc1ccc(O)cc1)NC(=O)[C@@H](CCC(=O)O)NC(=O)[C@@H](NC(=O)[C@H](Cc1ccccc1)NC(=O)[C@@H](NC(=O)C(C)(C)NC(=O)[C@H](CCC(N)=O)NC(=O)[C@H](C)NC(=O)[C@H](CCCCNC(=O)COCCOCCNC(=O)COCCOCCNC(=O)CC[C@H](NC(=O)CCCCCCCCCCCCCCCCC(=O)O)C(=O)O)NC(=O)[C@H](CCCN)NC(=O)[C@H](CC(=O)O)NC(=O)[C@H](CC(C)C)NC(=O)[C@](C)(CC(C)C)NC(=O)[C@@H](NC(=O)[C@H](CO)NC(=O)[C@H](Cc1ccncc1)NC(=O)[C@H](CC(=O)O)NC(=O)[C@H](CO)NC(=O)[C@@H](NC(=O)[C@](C)(Cc1ccccc1F)NC(=O)[C@@H](NC(=O)CNC(=O)[C@H](CCC(=O)O)NC(=O)C(C)(C)NC(=O)[C@@H](N)Cc1ccc(O)cc1)[C@@H](C)O)[C@@H](C)O)[C@@H](C)CC)[C@@H](C)O)[C@@H](C)CC)C(=O)N[C@@H](CCC(=O)O)C(=O)NCC(=O)NCC(=O)N1CCC[C@H]1C(=O)N[C@@H](CO)C(=O)N[C@@H](CO)C(=O)NCC(=O)N[C@@H](C)C(=O)N1CCC[C@H]1C(=O)N1CCC[C@H]1C(=O)N1CCC[C@H]1C(=O)N[C@@H](CO)C(N)=O` [Example 239] (H-Y[Aib]EGT[αMePhe(2-F)]TSD[4Pal]SI[αMeL]LD[Orn]K([AEEA-AEEA-γGlu-C18 diacid])AQ[Aib]TFI[dE][αMeY]LIEGGPSSGAPPPS-NH2; N-terminus assumed), the inhibition constant Ki is 596 nM on human Gcg receptor, 0.101 nM on human GIP receptor and 2.71 nM at human GLP-1R. The EC50 was 0.0376 nM in assay [1] and 0.0353 nM in assay [2].
The corresponding values for `CC[C@H](C)[C@H](NC(=O)[C@H](CC(C)C)NC(=O)[C@](C)(Cc1ccc(O)cc1)NC(=O)[C@@H](CCC(=O)O)NC(=O)[C@@H](NC(=O)[C@H](Cc1ccccc1)NC(=O)[C@H](C)NC(=O)C(C)(C)NC(=O)[C@H](CCC(N)=O)NC(=O)[C@H](C)NC(=O)[C@H](CCCCNC(=O)COCCOCCNC(=O)COCCOCCNC(=O)CC[C@H](NC(=O)CCCCCCCCCCCCCCCCC(=O)O)C(=O)O)NC(=O)[C@H](CCCN)NC(=O)[C@H](CC(=O)O)NC(=O)[C@H](CC(C)C)NC(=O)[C@](C)(CC(C)C)NC(=O)[C@@H](NC(=O)[C@H](CO)NC(=O)[C@H](Cc1ccncc1)NC(=O)[C@H](CC(=O)O)NC(=O)[C@H](CO)NC(=O)[C@@H](NC(=O)[C@](C)(Cc1ccccc1F)NC(=O)[C@@H](NC(=O)CNC(=O)[C@H](CCC(=O)O)NC(=O)C(C)(C)NC(=O)[C@@H](N)Cc1ccc(O)cc1)[C@@H](C)O)[C@@H](C)O)[C@@H](C)CC)[C@@H](C)CC)C(=O)N[C@@H](CCC(=O)O)C(=O)NCC(=O)NCC(=O)N1CCC[C@H]1C(=O)N[C@@H](CO)C(=O)N[C@@H](CO)C(=O)NCC(=O)N[C@@H](C)C(=O)N1CCC[C@H]1C(=O)N1CCC[C@H]1C(=O)N1CCC[C@H]1C(=O)N[C@@H](CO)C(N)=O` [Example 240] (H-Y[Aib]EGT[αMePhe(2-F)]TSD[4Pal]SI[αMeL]LD[Orn]K([AEEA-AEEA-γGlu-C18 diacid])AQ[Aib]AFI[dE][αMeY]LIEGGPSSGAPPPS-NH2) are 204 nM, 0.0284 nM, 0.552 nM, 0.0393 nM and 0.0223 nM.
